Measured values reported in patent US20230339983A1, “FLUORESCENT COMPOUNDS SPECIFIC FOR PLURIPOTENT STEM CELLS AND REPROGRAMMING-READY CELLS AND METHODS OF USING THE SAME” (Agency for Science, Technology and Research, priority 2018, published 2023).

Tests used:
[1] = system: reprogramming (RP) versus non-reprogramming (non-RP) DPSCs (DPSC1); assay: Signal-to-noise comparison of reprogramming versus non-reprogramming cells; type: cell-based, human
Protocol: FIG. 14: (A) Graph representing signal-to-noise ratios (arbitrary fluorescence units) on comparing reprogramming (RP) versus non-reprogramming (non-RP) DPSCs (DPSC1) stained with either CDy1 or BDL-E5. The fluorescence intensity was measured using ImageJ software. 100 cells per field (10×), 10 fields per well, 3 wells per probe were measured. […] denotes significance between RP and non-RP cells. (B) Proliferation assay of DPSC1 incubated with BDL-E5 (500 nM) for 2 to 5 days; represented as number of viable cells per cm^2 (n=3). (C) Proliferation assay of reprogramming DPSC1, 48 h after transfection with Scr CREB1, CREB1 OE or siCREB1; represented as number of viable cells per cm^2 (n=3).

[2] = Absorption and emission maxima of the probe; type: physicochemical
Protocol: The chemical properties of the BDL library are previously described (Jeong et al., 2015). BDL-E5 is based on 4,4-difluoro-4-bora-3a,4a-diaza-s-indacene (BODIPY), with calculated mass of 528.3 and absorption maximum/emission maximum of 578/599 nm. Primary, secondary and tertiary screening of fluorescent probes on AiPS, ASCs, DiPS and DPSCs were performed as described previously (Im, et al. (2010). Angew Chem Int Ed Engl 49, 7497-7500; Kang, et al. (2011). Nat Protoc 6, 1044-1052) and in the Results section. Unless described otherwise, BDL-E5 and CDy1 images were acquired by the Tetramethylrhodamine (TRITC) channel of ImageXpress Micro High-Content Imaging System, which had the Adaptive Background Correction function enabled.

[3] = system: reprogrammed ASCs and DPSCs on microcarriers; assay: Fluorescent probe staining on Cytodex 3 microcarriers (3D culture); type: cell-based, human; details: 14 and 21 dpn
Protocol: Reprogrammed monolayer ASCs and DPSCs were dissociated into single cell suspension using Dispase. Single cell suspension was transferred into a 6-well Suspension Culture Plate (Greiner bio-one) with Matrigel (Geltrex™, ThermoFisher)-coated Cytodex 3 microcarrier in 4 ml of mTeSR1 supplemented with 10 μM of Rock Inhibitor Y27632 (Calbiochem). The plate was placed on an orbital shaker (110 rpm) for at least 2 hours for cell attachment. Afterward, the plate was transferred to static condition and incubated at 37° C./5% CO2. Media change was carried out with mTeSR1 daily thereafter by aspirating […] of spent medium from the well and adding 4 ml of fresh media (80% medium exchange). On Day 7, the cells on microcarriers were supplemented and maintained with 4 ml of mTeSR1+SMC4 media. 80% medium change was carried out every day.
BDL-E5 probe staining of reprogrammed ASCs and DPSCs on microcarriers was carried out on Day 14 and 21 dpn. The microcarrier culture was washed twice with sterile D-PBS. Prior to staining, media was changed to mTeSR1 with 500 nM BDL-E5 probe and Alexa Fluor® 488 Mouse anti-human TRA-1-60 (200× dilution) (BD Pharmingen™). Cultures were incubated for 1 hour. The cells were then washed twice with D-PBS and replaced with mTeSR1 prior to imaging. Images were taken using Axio Observer Fluorescent Microscope (Carl Zeiss). […]

Question: With `COc1cc(F)c(/C=C/c2cc(C)c3n2[B-](F)(F)[N+]2=C(CCC(=O)NCCN(C)C)C=CC2=C3)cc1OC` [BDL-E5] as the compound, how does the “signal toward reprogramming cells and background staining against non-reprogramming cells” value [1] read?
Answer: low non-specific staining against non-reprogramming cells

Question: What about the absorption maximum [2] of the same compound?
Answer: 578 nm

Question: What about the emission maximum [2] of the same compound?
Answer: 599 nm

Question: What about the “staining of reprogrammed cells on microcarriers” value ([3]; 500 nM, 1 h) of the same compound?
Answer: clearly observed

Question: And the “background staining of Cytodex 3 microcarriers themselves” value [3]?
Answer: no background BDL-E5 staining
